In patent publication US20110212853A1, “NOVEL DIAGNOSTIC METHOD” (PROBIODRUG AG, priority 2010, published 2011):

Tests used:
[1] = tested on: Normal Human Dermal Fibroblasts (NHDF); assay: hMCP-1 N1pE/hMCP-1 ratio by ELISA in OSM+IL1β stimulated NHDF treated with QCI; type: cell-based; details: 10 μM QCI
Description: To capture human MCP-1, commercially available polyclonal antiserum goat anti-hMCP1-AF (R&D Systems, Minneapolis, USA) as capture antibody which specifically binds human MCP-1 was diluted in PBS to 250 ng/ml and immobilized in polystyrene 96-well microtitre plates overnight at 4° C. Thereafter, blocking occurred for 2 hours at room temperature with ELISA Blocker (Thermo Fisher Scientific, Waltham, USA). For preparation of the standard curve recombinant hMCP-1 was incubated with recombinant human Glutaminyl Cyclase (QC) in order to obtain hMCP-1 N1pE. The recombinant hMCP-1 N1pE standard peptide was serially diluted with ELISA Blocker from 1000 pg/ml down to 15.63 pg/ml and added to the wells in duplicate. Two wells filled with ELISA Blocker represent the standard curve value 0 pg/ml. After an incubation period of 2 hours at room temperature, plates were washed at least three times with TBS-T. For detection of hMCP-1 N1pE, the MCP-1 N1pE antibody clone 348-2C9 together with HRP-conjugated anti mouse antibody were both diluted in blocking buffer to final concentrations of 500 ng/ml. For detection of hMCP-1, the antibody mouse anti hMCP-1 (Peprotech, Hamburg, Germany) together with HRP-conjugated anti mouse antibody were also both diluted in blocking buffer to final concentrations of 500 ng/ml. The detection antibody/conjugate solutions were incubated for 2 hours at room temperature. […] Absorption at 450/540 nm was determined by a Tecan Sunrise plate reader.
Quantitative detection of hMCP-1 and hMCP-1 N1pE occurred according to the protocol in […]. […] The cell culture supernatants were analyzed at different time points in order to examine time dependency of hMCP-1 and hMCP-1 N1pE secretion. […]
NHDF have been stimulated with 10 ng/ml OSM, IL1β and simultaneously treated with or without 10 μM QCI for 6 days. […] In order to examine the influence of QCI on hMCP-1 and hMCP-1 N1pE level, the cell culture supernatants were analyzed at different time points according to the ELISA protocol in Example 7.

A549 cells = assay: hMCP-1 N1pE/hMCP-1 ratio by ELISA in TNFα+IL1β stimulated A549 treated with QCI; type: cell-based, human; details: 24 h, different QCI concentrations
Description: To capture human MCP-1, commercially available polyclonal antiserum goat anti-hMCP1-AF (R&D Systems, Minneapolis, USA) as capture antibody which specifically binds human MCP-1 was diluted in PBS to 250 ng/ml and immobilized in polystyrene 96-well microtitre plates overnight at 4° C. Thereafter, blocking occurred for 2 hours at room temperature with ELISA Blocker (Thermo Fisher Scientific, Waltham, USA). For preparation of the standard curve recombinant hMCP-1 was incubated with recombinant human Glutaminyl Cyclase (QC) in order to obtain hMCP-1 N1pE. The recombinant hMCP-1 N1pE standard peptide was serially diluted with ELISA Blocker from 1000 pg/ml down to 15.63 pg/ml and added to the wells in duplicate. Two wells filled with ELISA Blocker represent the standard curve value 0 pg/ml. After an incubation period of 2 hours at room temperature, plates were washed at least three times with TBS-T. For detection of hMCP-1 N1pE, the MCP-1 N1pE antibody clone 348-2C9 together with HRP-conjugated anti mouse antibody were both diluted in blocking buffer to final concentrations of 500 ng/ml. For detection of hMCP-1, the antibody mouse anti hMCP-1 (Peprotech, Hamburg, Germany) together with HRP-conjugated anti mouse antibody were also both diluted in blocking buffer to final concentrations of 500 ng/ml. The detection antibody/conjugate solutions were incubated for 2 hours at room temperature. Following several washes with TBS-T a colour reaction with commercially available HRP substrate TMB (SureBlue Reserve TMB Microwell Peroxidase Substrate (1-component), KPL, Gaithersburg, USA) was performed (30 minutes incubation at room temperature in the dark) and subsequently stopped by the addition of 1,2N H2SO4. Absorption at 450/540 nm was determined by a Tecan Sunrise plate reader.
A549 cells were stimulated for 24 h with 10 ng/ml TNFα and IL1β. Furthermore, QCI was applied in different concentrations to the cells. After 24 h cell culture supernatants were analyzed according to the protocol in Example 7.

RAW 264.7 cells = assay: Western Blot of mMCP-1 N1pE and total mMCP-1 in RAW 264.7 cell culture supernatant; type: cell-based, mouse; details: RAW 264.7 supernatants, different QCI
Description: Stimulation of RAW 264.7 and inhibitor application occurred according to Example 9. For Western Blot analysis, proteins of cell culture supernatants were separated by application to a SDS gel electrophoresis. Separated proteins were electrically transferred to nitrocellulose membranes. Membranes were blocked for one hour with TBST-M (=TBST+5% skimmed milk) at room temperature with gentle shaking. Antibody incubation occurred over night at 4° C. on a rocking platform with the detection antibody for total mMCP-1 (Rat anti mouse MCP-1, R&D Systems) diluted to 1 μg/ml in equal volumes of TBST-M or the detection antibody for mMCP-1 N1pE (clone 332-4B8), respectively. Secondary anti-mouse and anti-rat antibody conjugated with horseradish peroxidase were used for signal detection, following standard procedures.

recombinant human QC = recombinant human QC (Homo sapiens, UniProt Q16769); assay: Chemotactic potency of human MCP-1 in absence or presence of a QC-inhibitor (QC-mediated pGlu formation, then DP4 cleavage); type: biochemical; details: 10 μM inhibitor, FIG. 12
Chain of recombinant human QC (Q16769 29-361): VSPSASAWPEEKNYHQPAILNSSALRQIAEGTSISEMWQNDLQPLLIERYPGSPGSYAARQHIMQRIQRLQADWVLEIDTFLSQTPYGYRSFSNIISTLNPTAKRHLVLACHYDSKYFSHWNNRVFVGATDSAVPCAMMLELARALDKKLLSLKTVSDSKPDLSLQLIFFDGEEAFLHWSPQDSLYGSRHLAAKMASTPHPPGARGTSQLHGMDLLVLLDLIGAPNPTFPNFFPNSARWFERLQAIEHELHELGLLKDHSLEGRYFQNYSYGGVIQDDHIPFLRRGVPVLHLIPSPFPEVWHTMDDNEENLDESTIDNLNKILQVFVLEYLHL
Description: Recombinant human MCP-1(1-76) (SEQ ID NO: 1) starting with an N-terminal glutamine (Peprotech) was dissolved in 25 mM Tris/HCl pH 7.6 in a concentration of 10 μg/ml. The MCP-1 solution was either pre-incubated with recombinant human QC (0.0006 mg/ml) for 3 h at 30° C. and subsequently incubated with recombinant human DP4 (0.0012 mg/ml) at 30° C. or incubated with DP4 without prior QC application. In addition, the incubation of Gln^1-MCP-1 with recombinant human QC was carried out in the presence of 10 μM of 1-(3-(1H-imidazol-1-yl)propyl)-3-(3,4-dimethoxyphenyl)thiourea hydrochloride. Resulting DP4 cleavage products were analyzed using Maldi-TOF mass spectrometry after 0 min, 15 min, 30 min, 1 h, 2 h and 4 h.
The chemotaxis assay was performed using 24 well TransWell plates with a pore size of 5 μm (Corning). THP-1 cells were suspended in RPMI1640 in a concentration of 1*10^6 cells/100 μl and applied in 100 μl aliquots to the upper chamber. Cells were allowed to migrate towards the chemoattractant for 2 h at 37° C. […] Afterwards, cells migrated to the lower chamber were counted using a cell counter system (Schärfe System). The chemotactic index was calculated by dividing cells migrated to the stimulus from cells migrated to the negative control. […]

## COc1ccc(NC(=S)NCCCn2ccnc2)cc1OC.Cl [QCI, 1-(3-(1H-imidazol-1-yl)propyl)-3-(3,4-dimethoxyphenyl)thiourea hydrochloride]
[1]; 1-2 days
  hMCP-1 N1pE level after 1-2 days of OSM+IL1β stimulation: below the limit of quantitation
[1]; OSM+IL1β
  hMCP-1 N1pE level: decreased
  ratio of hMCP-1 N1pE/hMCP-1: about 0,35
A549 cells
  amount of hMCP-1 N1pE: reduced by QCI in a concentration dependent manner
  amount of total hMCP-1: nearly unaffected
  ratio of hMCP-1 N1pE/hMCP-1: decreases with increasing inhibitor concentrations
RAW 264.7 cells; FIG. 22A
  Western Blot signal of mMCP-1 N1pE: concentration dependent
RAW 264.7 cells; FIG. 22B
  Western Blot signal intensity of total mMCP-1: no change
Recombinant human QC
  pGlu-formation of Gln^1-MCP-1 by QC: prevents pGlu-formation
